Test results as given in patent US20030068282A1, “Composition” (Unilever Home & Personal Care USA, Division of Conopco, Inc., priority 2001, published 2003).

Test: salivary sediment model: amount of n-octyl paraben delivered from toothpaste to salivary sediment
Assay type: in vitro ADME
Conditions: for amount of paraben delivered, Rep 1 / amount of paraben delivered, Rep 2 / amount of paraben delivered, Mean: toothpaste with 1.1% n-octyl paraben; for amount of paraben delivered, Rep 1 / amount of paraben delivered, Rep 2: ex-vivo samples; for amount of paraben delivered, Mean: mean of two repetitions
Experimental: Standard toothpastes comprising SLS and n-octyl paraben were tested in a salivary sediment model similar to that described by R. L. Wijeijweera and I. Kleinberg in Archs. Oral Biol., Vol. 34, No. 1, 1989, pages 43-53, using ex-vivo samples and measuring the amount of n-octyl paraben delivered to the salivary sediment.
Two repetitions were carried out for each SLS level in a paste comprising 1.1% n-octyl paraben. The values represnet the amount (ppm per ml sediment suspension) of paraben delivered.

CCCCCCCCOC(=O)c1ccc(O)cc1 [n-octyl paraben]
level of paraben delivered, comparison between SLS levels (SLS levels 1.4 and 1.6% compared with 1.8%): greater at SLS levels ranging at 1.4 and 1.6% than for 1.8%
amount of paraben delivered, Rep 1 (1.4% SLS in base): 60.080 ppm per ml sediment suspension
amount of paraben delivered, Rep 2 (1.4% SLS in base): 61.657 ppm per ml sediment suspension
amount of paraben delivered, Mean (1.4% SLS in base): 60.869 ppm per ml sediment suspension
amount of paraben delivered, Rep 1 (1.6% SLS in base): 59.534 ppm per ml sediment suspension
amount of paraben delivered, Rep 2 (1.6% SLS in base): 63.775 ppm per ml sediment suspension
amount of paraben delivered, Mean (1.6% SLS in base): 61.654 ppm per ml sediment suspension
amount of paraben delivered, Rep 1 (1.8% SLS in base): 48.790 ppm per ml sediment suspension
amount of paraben delivered, Rep 2 (1.8% SLS in base): 48.352 ppm per ml sediment suspension
amount of paraben delivered, Mean (1.8% SLS in base): 48.571 ppm per ml sediment suspension
